Results published in patent publication US20250313548A1 (Actio Biosciences, Inc., priority 2023, published 2025).

The compounds below were run against human, KCNT1 (Homo sapiens (Human), UniProt Q5JUK3) (assay: FLIPR Tl/K Flux Assay). Settings: HEK293 cells stably expressing human KCNT1; Tl+ flux stimulated with EC80 of agonist Loxapine.
Type: cell-based
In short: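 HEK293 cells stably expressing human KCNT1 were loaded with FLIPR potassium dye in HEPES/HBSS pH 7.4 with 5 mM probenecid, 1 h at 25 °C, then given test compound for 30 min at 25 °C. Tl+ flux was triggered with chloride-free buffer containing Tl+ and EC80 loxapine and read 160 s. IC50 came from Hill fits of % inhibition.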

human, KCNT1, sequence (Q5JUK3 whole entry): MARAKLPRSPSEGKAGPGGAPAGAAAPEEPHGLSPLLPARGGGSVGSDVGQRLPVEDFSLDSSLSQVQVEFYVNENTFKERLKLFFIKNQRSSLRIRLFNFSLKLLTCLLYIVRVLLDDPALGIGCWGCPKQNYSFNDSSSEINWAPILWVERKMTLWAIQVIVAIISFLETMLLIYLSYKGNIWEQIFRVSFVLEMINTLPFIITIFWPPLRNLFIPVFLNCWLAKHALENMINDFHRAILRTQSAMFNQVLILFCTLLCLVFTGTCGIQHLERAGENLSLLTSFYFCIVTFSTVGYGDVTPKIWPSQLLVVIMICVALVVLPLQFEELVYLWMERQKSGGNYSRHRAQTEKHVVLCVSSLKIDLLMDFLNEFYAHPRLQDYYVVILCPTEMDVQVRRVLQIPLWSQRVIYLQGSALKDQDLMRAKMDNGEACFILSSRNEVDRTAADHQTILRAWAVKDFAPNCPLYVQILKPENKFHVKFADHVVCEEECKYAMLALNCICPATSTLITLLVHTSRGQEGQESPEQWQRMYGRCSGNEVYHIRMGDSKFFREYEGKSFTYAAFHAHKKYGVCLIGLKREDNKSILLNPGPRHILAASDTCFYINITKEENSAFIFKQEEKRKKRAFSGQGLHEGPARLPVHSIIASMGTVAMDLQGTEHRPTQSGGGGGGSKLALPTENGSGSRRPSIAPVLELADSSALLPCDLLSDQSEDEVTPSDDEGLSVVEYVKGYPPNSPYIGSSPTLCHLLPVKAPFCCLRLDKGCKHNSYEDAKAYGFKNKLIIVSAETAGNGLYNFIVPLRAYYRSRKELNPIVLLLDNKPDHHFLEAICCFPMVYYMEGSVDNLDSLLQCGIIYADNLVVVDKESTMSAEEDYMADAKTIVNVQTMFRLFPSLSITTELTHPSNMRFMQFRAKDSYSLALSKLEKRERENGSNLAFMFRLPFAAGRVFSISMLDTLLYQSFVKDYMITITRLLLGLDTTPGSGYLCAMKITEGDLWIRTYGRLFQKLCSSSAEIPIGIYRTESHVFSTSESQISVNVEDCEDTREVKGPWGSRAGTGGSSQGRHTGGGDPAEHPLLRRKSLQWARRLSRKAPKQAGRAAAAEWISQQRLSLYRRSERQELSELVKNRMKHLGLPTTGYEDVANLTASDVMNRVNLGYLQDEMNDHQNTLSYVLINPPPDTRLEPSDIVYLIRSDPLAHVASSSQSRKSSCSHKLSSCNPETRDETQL

Q: `COc1cc(-c2nc3c(o2)[C@H](NC(=O)c2cncc(C(F)(F)F)n2)CCC3)ccn1` [Compound I-512b] was tested. Which IC50 did it give?
A: > 1000 nM

Q: `O=C(NC1CCCc2nn(-c3ccnc(C(F)(F)F)c3)cc21)c1ccc(C(F)(F)F)nc1` (racemic) [Compound I-19, (rac)-6-(Trifluoromethyl)-N-(2-(2-(trifluoromethyl)pyridin-4-yl)-4,5,6,7-tetrahydro-2H-indazol-4-yl)nicotinamide] was tested. Which IC50 did it give?
A: 250 to 500 nM

Q: `Cn1nc(C2CC2)cc1C(=O)N[C@H]1CCCCc2nn(-c3ccnc(C(F)(F)F)c3)cc21` [Compound I-369a] was tested. Which IC50 did it give?
A: < 250 nM

Q: How did the IC50 turn out when `Cc1nn(C(F)(F)F)cc1C(=O)N[C@H]1CCn2nc(-c3ccnc(C4CC4)c3)cc21` [Compound I-555a, (S)-N-(2-(2-Cyclopropylpyridin-4-yl)-5,6-dihydro-4H-pyrrolo[1,2-b]pyrazol-4-yl)-3-methyl-1-(trifluoromethyl)-1H-pyrazole-4-carboxamide] was run?
A: < 250 nM

Q: For `Cn1nc(C(F)(F)F)cc1C(=O)N[C@H]1CCCn2nc(-c3ccnc(C4CC4)c3)nc21` [Compound I-201a, (S)—N-(2-(2-Cyclopropylpyridin-4-yl)-5,6,7,8-tetrahydro-[1,2,4]triazolo[1,5-a]pyridin-8-yl)-1-methyl-3-(trifluoromethyl)-1H-pyrazole-5-carboxamide], which IC50 is on record?
A: < 250 nM

Q: For `Cc1nc(C(=O)N[C@H]2CCn3nc(-c4ccnc(C(F)(F)F)c4)cc32)n(C)n1` [Compound I-221a, (S)-1,3-Dimethyl-N-(2-(2-(trifluoromethyl)pyridin-4-yl)-5,6-dihydro-4H-pyrrolo[1,2-b]pyrazol-4-yl)-1H-1,2,4-triazole-5-carboxamide], which IC50 is on record?
A: < 250 nM

Q: For `O=C(N[C@H]1CCCc2nc(-c3ccnc(C(F)(F)F)c3)oc21)c1ccnc(OC(F)(F)F)c1` [Compound I-186a, (S)-2-(Trifluoromethoxy)-N-(2-(2-(trifluoromethyl)pyridin-4-yl)-4,5,6,7-tetrahydrobenzo[d]oxazol-7-yl)isonicotinamide], which IC50 is on record?
A: < 250 nM

Q: How did the IC50 turn out when `CC(F)(F)c1cc(-c2nc3c(o2)CCC[C@@H]3NC(=O)c2cncc(C(F)(F)F)c2)ccn1` [Compound I-533a, (S)—N-(2-(2-(1,1-Difluoroethyl)pyridin-4-yl)-4,5,6,7-tetrahydrobenzo[d]oxazol-4-yl)-5-(trifluoromethyl)nicotinamide] was run?
A: < 250 nM

Q: Which IC50 does the source give for `COc1nc(C(=O)N[C@H]2CCn3nc(-c4ccnc(C(F)(F)F)c4)cc32)n(C)n1` [Compound I-210a, (S)-3-Methoxy-1-methyl-N-(2-(2-(trifluoromethyl)pyridin-4-yl)-5,6-dihydro-4H-pyrrolo[1,2-b]pyrazol-4-yl)-1H-1,2,4-triazole-5-carboxamide] here?
A: < 250 nM

Q: How did the IC50 turn out when `COc1cc(-c2nc3c(o2)[C@@H](NC(=O)c2cccc(OC(F)(F)F)c2)CCC3)c(F)cn1` [Compound I-176a, (S)-N-(2-(5-Fluoro-2-methoxypyridin-4-yl)-4,5,6,7-tetrahydrobenzo[d]oxazol-7-yl)-3-(trifluoromethoxy)benzamide] was run?
A: < 250 nM

Q: `Cn1nc(C(F)(F)F)cc1C(=O)N[C@H]1CCCn2nc(-c3ccnc(C(C)(C)O)c3)cc21` [Compound I-444a] was tested. Which IC50 did it give?
A: 500 to 1000 nM

Q: For `COc1cc(-c2nc3c(o2)[C@@H](NC(=O)c2cncc(C(F)(F)F)n2)CCC3)c(Cl)cn1` [Compound I-161a, (S)-N-(2-(5-Chloro-2-methoxypyridin-4-yl)-4,5,6,7-tetrahydrobenzo[d]oxazol-7-yl)-6-(trifluoromethyl)pyrazine-2-carboxamide], which IC50 is on record?
A: 250 to 500 nM

Q: With `Cn1nc(C(F)(F)F)cc1C(=O)NC1CCc2ccc(-c3ccnc(C(F)(F)F)c3)nc21` (stereo not drawn) [Compound I-43] as the compound, how does the IC50 read?
A: > 1000 nM

Q: With `Cn1nc(C(F)(F)F)nc1C(=O)N[C@H]1CCn2nc(-c3cc(C(F)(F)F)ncc3F)cc21` [Compound I-548a, (S)—N-(2-(5-Fluoro-2-(trifluoromethyl)pyridin-4-yl)-5,6-dihydro-4H-pyrrolo[1,2-b]pyrazol-4-yl)-1-methyl-3-(trifluoromethyl)-1H-1,2,4-triazole-5-carboxamide] as the compound, how does the IC50 read?
A: < 250 nM

Q: With `Cc1cc(C#N)cc(C(=O)N[C@H]2CCCn3nc(-c4ccnc(C(F)(F)F)c4)cc32)c1` [Compound I-418a] as the compound, how does the IC50 read?
A: < 250 nM

Q: `O=C(N[C@H]1CCn2nc(-c3cc(C(F)(F)F)ncc3F)cc21)c1ccnc(OC(F)(F)F)c1` [Compound I-536a, (S)-N-(2-(5-Fluoro-2-(trifluoromethyl)pyridin-4-yl)-5,6-dihydro-4H-pyrrolo[1,2-b]pyrazol-4-yl)-2-(trifluoromethoxy)isonicotinamide] was tested. Which IC50 did it give?
A: < 250 nM

Q: `Cn1nc(C(F)(F)F)cc1C(=O)N[C@@H]1CCc2nn(-c3ccnc(OC(F)(F)F)c3)cc21` [Compound I-73b] was tested. Which IC50 did it give?
A: 500 to 1000 nM

Q: Which IC50 does the source give for `O=C(N[C@H]1CCc2nn(-c3ccnc(C(F)(F)F)c3)cc21)C1CCC(F)(F)CC1` [Compound I-106a] here?
A: < 250 nM

Q: How did the IC50 turn out when `N#Cc1cc(F)cc(C(=O)N[C@H]2CCn3nc(-c4ccnc(C5CC5)c4)cc32)c1` [Compound I-300a, (S)-3-Cyano-N-(2-(2-cyclopropylpyridin-4-yl)-5,6-dihydro-4H-pyrrolo[1,2-b]pyrazol-4-yl)-5-fluorobenzamide] was run?
A: < 250 nM

Q: Which IC50 does the source give for `Cc1cccc(C(=O)NC2CCCc3nn(-c4ccnc(C(F)(F)F)c4)cc32)c1` (racemic) [Compound I-17, (rac)-3-Methyl-N-(2-(2-(trifluoromethyl)pyridin-4-yl)-4,5,6,7-tetrahydro-2H-indazol-4-yl)benzamide] here?
A: < 250 nM

Q: With `O=C(N[C@H]1CCc2nn(-c3ccnc(C(F)(F)F)c3)cc21)c1cc(Cl)cc(Cl)c1` [Compound I-99a] as the compound, how does the IC50 read?
A: < 250 nM

Q: How did the IC50 turn out when `Cc1c(-n2cc3c(n2)CCC[C@@H]3NC(=O)c2cc(C(F)(F)F)nn2C)ccnc1C(F)(F)F` [Compound I-359a] was run?
A: < 250 nM

Q: For `Cc1cc(-c2cc3n(n2)CCC[C@@H]3NC(=O)c2cc(C(F)(F)F)nn2C)cc(C(F)(F)F)n1` [Compound I-432a], which IC50 is on record?
A: < 250 nM

Q: For `COc1cc(-c2cc3n(n2)CCC[C@@H]3NC(=O)c2cc(C(F)(F)F)nn2C)cc(C)n1` [Compound I-431a], which IC50 is on record?
A: < 250 nM

Q: How did the IC50 turn out when `Cn1nc(C2CC2)cc1C(=O)NC1CCCc2nn(-c3ccnc(C(F)(F)F)c3)cc21` (racemic) [Compound I-11, (rac)-3-Cyclopropyl-1-methyl-N-(2-(2-(trifluoromethyl)pyridin-4-yl)-4,5,6,7-tetrahydro-2H-indazol-4-yl)-1H-pyrazole-5-carboxamide] was run?
A: 250 to 500 nM

Q: `Cn1nc(C(F)(F)F)cc1C(=O)N[C@@H]1CCCCc2nn(-c3ccnc(C(F)(F)F)c3)cc21` [Compound I-45b, (R)-1-methyl-3-(trifluoromethyl)-N-(2-(2-(trifluoromethyl)pyridin-4-yl)-2,4,5,6,7,8-hexahydrocyclohepta[c]pyrazol-4-yl)-1H-pyrazole-5-carboxamide] was tested. Which IC50 did it give?
A: > 1000 nM

Q: For `Cc1nc(C(F)(F)F)oc1C(=O)N[C@H]1CCCn2nc(-c3ccnc(C(F)(F)F)c3)nc21` [Compound I-216a, (S)-4-Methyl-2-(trifluoromethyl)-N-(2-(2-(trifluoromethyl)pyridin-4-yl)-5,6,7,8-tetrahydro-[1,2,4]triazolo[1,5-a]pyridin-8-yl)oxazole-5-carboxamide], which IC50 is on record?
A: < 250 nM

Q: For `Cn1nc(C(F)(F)F)cc1C(=O)N[C@@H]1CCCc2ncc(-c3ccnc(C(F)(F)F)c3)cc21` [Compound I-383b], which IC50 is on record?
A: > 1000 nM

Q: For `O=C(N[C@H]1CCCc2oc(-c3ccnc(C(F)(F)F)c3)nc21)C12CC(C(F)(F)F)(C1)C2` [Compound I-507a, (S)-3-(Trifluoromethyl)-N-(2-(2-(trifluoromethyl)pyridin-4-yl)-4,5,6,7-tetrahydrobenzo[d]oxazol-4-yl)bicyclo[1.1.1]pentane-1-carboxamide], which IC50 is on record?
A: < 250 nM

Q: For `Cn1nc(C2CC2)cc1C(=O)N[C@H]1CCCCn2nc(-c3ccnc(C(F)(F)F)c3)cc21` [Compound I-388a], which IC50 is on record?
A: < 250 nM

Q: With `COc1cc(-c2nc3c(o2)CCC[C@H]3NC(=O)c2cncc(C(F)(F)F)n2)c(F)cn1` [Compound I-503b] as the compound, how does the IC50 read?
A: > 1000 nM

Q: For `COc1cc(-c2cc3n(n2)CCC[C@@H]3NC(=O)c2cc(F)cc(C(F)(F)F)c2)ccn1` [Compound I-287a, (S)-3-Fluoro-N-(2-(2-methoxypyridin-4-yl)-4,5,6,7-tetrahydropyrazolo[1,5-a]pyridin-4-yl)-5-(trifluoromethyl)benzamide], which IC50 is on record?
A: < 250 nM

Q: How did the IC50 turn out when `COc1cc(-c2cc3n(n2)CC[C@@H]3NC(=O)c2cnn(C(F)(F)F)c2)ccn1` [Compound I-255a, (S)-N-(2-(2-Methoxypyridin-4-yl)-5,6-dihydro-4H-pyrrolo[1,2-b]pyrazol-4-yl)-1-(trifluoromethyl)-1H-pyrazole-4-carboxamide] was run?
A: < 250 nM

Q: For `Cc1cnc(C(F)(F)F)cc1-n1cc2c(n1)CC[C@@H]2NC(=O)c1cccc(C#N)c1` [Compound I-235a, (S)-3-Cyano-N-(2-(5-methyl-2-(trifluoromethyl)pyridin-4-yl)-2,4,5,6-tetrahydrocyclopenta[c]pyrazol-4-yl)benzamide], which IC50 is on record?
A: < 250 nM

Q: Which IC50 does the source give for `Cn1nc(C(F)(F)F)cc1C(=O)N[C@H]1CCCc2nc(-c3cc(C(F)(F)F)ncc3F)oc21` [Compound I-514a, (S)—N-(2-(5-Fluoro-2-(trifluoromethyl)pyridin-4-yl)-4,5,6,7-tetrahydrobenzo[d]oxazol-7-yl)-1-methyl-3-(trifluoromethyl)-1H-pyrazole-5-carboxamide] here?
A: < 250 nM

Q: Which IC50 does the source give for `O=C(N[C@H]1CCCc2nc(-c3ccnc(C(F)(F)F)c3)oc21)C12CC(C(F)(F)F)(C1)C2` [Compound I-515a] here?
A: < 250 nM

Q: Which IC50 does the source give for `N#Cc1cccc(C(=O)N[C@@H]2CCCCc3oc(-c4ccnc(C(F)(F)F)c4)nc32)c1` [Compound I-160b, (R)-3-cyano-N-(2-(2-(trifluoromethyl)pyridin-4-yl)-5,6,7,8-tetrahydro-4H-cyclohepta[d]oxazol-4-yl)benzamide] here?
A: < 250 nM

Q: Which IC50 does the source give for `O=C(N[C@H]1CCCn2nc(-c3cc(C4CC4)ncc3F)cc21)c1ccnc(OC(F)(F)F)c1` [Compound I-498a, (S)-N-(2-(2-Cyclopropyl-5-fluoropyridin-4-yl)-4,5,6,7-tetrahydropyrazolo[1,5-a]pyridin-4-yl)-2-(trifluoromethoxy)isonicotinamide] here?
A: < 250 nM

Q: Which IC50 does the source give for `COc1cc(-c2cc3n(n2)CC[C@H]3NC(=O)c2cc(C(F)(F)F)nn2C)ccn1` [Compound I-427b] here?
A: > 1000 nM
